Measurements published in patent US20250098679A1, “HERBICIDAL PYRIDONE DERIVATIVES” (SYNGENTA CROP PROTECTION AG, priority 2021, published 2025).

Assays:
Type in all cases: in vivo
Settings in all cases: evaluated after 13 days
Setaria faberi (SETFA) [1] = test: Pre-emergence Test, Setaria faberi (SETFA)
[2] = tested on: Echinochloa crus-galli (ECHCG); test: Pre-emergence Test, Echinochloa crus-galli (ECHCG)
Zea mays (ZEAMX) [3] = test: Pre-emergence Test, Zea mays (ZEAMX)
[4] = tested on: Ipomoea hederacea (IPOHE); test: Pre-emergence Test, Ipomoea hederacea (IPOHE)
[5] = tested on: Amaranthus palmeri (AMAPA); test: Pre-emergence Test, Amaranthus palmeri (AMAPA)
[6] = tested on: Amaranthus retoflexus (AMARE); test: Pre-emergence Test, Amaranthus retoflexus (AMARE)
Setaria faberi (SETFA) [7] = test: Post-emergence Test, Setaria faberi (SETFA); set-up: key to percentage damage caused to the plant, SETFA (five-point scale): 5=81-100%, 4=61-80%, 3=41-60%, 2=21-40%, 1=0-20% damage
How it was run: (§1)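 Percent plant damage was rated 13 days post-application on a 1–5 scale (1=0-20%, 5=81-100%). Application used an aqueous acetone (50:50)/0.5% Tween 20 spray, normally 1000 g/ha, with controlled glasshouse conditions (24/16 °C, 14 h light, 65% humidity).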

[8] = tested on: Echinochloa crus-galli (ECHCG); test: Post-emergence Test, Echinochloa crus-galli (ECHCG); set-up: key to percentage damage caused to the plant, ECHCG (five-point scale): 5=81-100%, 4=61-80%, 3=41-60%, 2=21-40%, 1=0-20% damage
How it was run: as §1

Zea mays (ZEAMX) [9] = test: Post-emergence Test, Zea mays (ZEAMX); set-up: key to percentage damage caused to the plant, ZEAMX (five-point scale): 5=81-100%, 4=61-80%, 3=41-60%, 2=21-40%, 1=0-20% damage
How it was run: as §1

[10] = tested on: Ipomoea hederacea (IPOHE); test: Post-emergence Test, Ipomoea hederacea (IPOHE); set-up: key to percentage damage caused to the plant, IPOHE (five-point scale): 5=81-100%, 4=61-80%, 3=41-60%, 2=21-40%, 1=0-20% damage
How it was run: as §1

[11] = tested on: Amaranthus palmeri (AMAPA); test: Post-emergence Test, Amaranthus palmeri (AMAPA); set-up: key: 5=81-100%, 4=61-80%, 3=41-60%, 2=21-40%, 1=0-20% damage
How it was run: as §1

[12] = tested on: Amaranthus retoflexus (AMARE); test: Post-emergence Test, Amaranthus retoflexus (AMARE); set-up: key to percentage damage caused to the plant, AMARE (five-point scale): 5=81-100%, 4=61-80%, 3=41-60%, 2=21-40%, 1=0-20% damage
How it was run: as §1

SMILES | Pre-emergence Test SETFA, percentage damage caused to the plant (five-point scale) (Setaria faberi (SETFA) [1]; 250 g/Ha (*)) | Pre-emergence Test ECHCG, percentage damage caused to the plant (five-point scale) ([2]; 250 g/Ha (*)) | Pre-emergence Test ZEAMX, percentage damage caused to the plant (five-point scale) (Zea mays (ZEAMX) [3]; 250 g/Ha (*)) | Pre-emergence Test IPOHE, percentage damage caused to the plant (five-point scale) ([4]; 250 g/Ha (*)) | Pre-emergence Test AMAPA, percentage damage caused to the plant (five-point scale) ([5]; 250 g/Ha (*)) | Pre-emergence Test AMARE, percentage damage caused to the plant (five-point scale) ([6]; 250 g/Ha (*)) | percentage damage caused to the plant, SETFA (five-point scale) (Setaria faberi (SETFA) [7]; 250 g/Ha) | percentage damage caused to the plant, ECHCG (five-point scale) ([8]; 250 g/Ha) | percentage damage caused to the plant, ZEAMX (five-point scale) (Zea mays (ZEAMX) [9]; 250 g/Ha) | percentage damage caused to the plant, IPOHE (five-point scale) ([10]; 250 g/Ha) | percentage damage caused to the plant, AMAPA (five-point scale) ([11]; 250 g/Ha) | percentage damage caused to the plant, AMARE (five-point scale) ([12]; 250 g/Ha) | Pre-emergence Test SETFA, percentage damage caused to the plant (five-point scale) (Setaria faberi (SETFA) [1]; 1000 g/ha) | Pre-emergence Test ECHCG, percentage damage caused to the plant (five-point scale) ([2]; 1000 g/ha) | percentage damage caused to the plant, SETFA (five-point scale) (Setaria faberi (SETFA) [7]; 1000 g/ha) | percentage damage caused to the plant, ECHCG (five-point scale) ([8]; 1000 g/ha) | percentage damage caused to the plant, ZEAMX (five-point scale) (Zea mays (ZEAMX) [9]; 1000 g/ha) | percentage damage caused to the plant, IPOHE (five-point scale) ([10]; 1000 g/ha) | percentage damage caused to the plant, AMAPA (five-point scale) ([11]; 1000 g/ha) | percentage damage caused to the plant, AMARE (five-point scale) ([12]; 1000 g/ha) | further results
CCn1c(Cn2cnc3ncccc32)cc(=O)c(C(=O)O)c1-c1ccc(Cl)c(Cl)c1 [Compound 125, 2-(3,4-dichlorophenyl)-1-ethyl-6-(imidazo[4,5-b]pyridin-1-ylmethyl)-4-oxo-pyridine-3-carboxylic acid] | 1 (1=0-20%) | 0 | 0 | 0 | 1 (1=0-20%) | 0 | 1 (1=0-20%) | 1 (1=0-20%) | 1 (1=0-20%) | 1 (1=0-20%) | 0 | 1 (1=0-20%) | – | – | – | – | – | – | – | – | –
CCn1c(Cn2nc(C)cc2OC)cc(=O)c(C(=O)O)c1-c1ccc(Cl)c(Cl)c1 [Compound 127, 2-(3,4-dichlorophenyl)-1-ethyl-6-[(5-methoxy-3-methyl-pyrazol-1-yl)methyl]-4-oxo-pyridine-3-carboxylic acid] | 3 (3=41-60%) | 1 (1=0-20%) | 0 | 0 | 1 (1=0-20%) | 1 (1=0-20%) | 3 (3=41-60%) | 2 (2=21-40%) | 1 (1=0-20%) | 1 (1=0-20%) | 0 | 0 | 5 (5=81-100%) | 3 (3=41-60%) | 3 (3=41-60%) | 4 (4=61-80%) | 3 (3=41-60%) | 3 (3=41-60%) | 3 (3=41-60%) | 2 (2=21-40%) | Pre-emergence Test ZEAMX, percentage damage caused to the plant (five-point scale) (Zea mays (ZEAMX) [3]; 1000 g/ha): 4 (4=61-80%); Pre-emergence Test IPOHE, percentage damage caused to the plant (five-point scale) ([4]; 1000 g/ha): 2 (2=21-40%); Pre-emergence Test AMAPA, percentage damage caused to the plant (five-point scale) ([5]; 1000 g/ha): 1 (1=0-20%); Pre-emergence Test AMARE, percentage damage caused to the plant (five-point scale) ([6]; 1000 g/ha): 2 (2=21-40%)
CCn1c(Cn2nccc2OC(F)F)cc(=O)c(C(=O)O)c1-c1ccc(Cl)c(Cl)c1 [Compound 85, 2-(3,4-dichlorophenyl)-6-[[5-(difluoromethoxy)pyrazol-1-yl]methyl]-1-ethyl-4-oxo-pyridine-3-carboxylic acid] | 3 (3=41-60%) | 2 (2=21-40%) | 0 | 1 (1=0-20%) | 0 | 0 | 4 (4=61-80%) | 2 (2=21-40%) | 0 | 4 (4=61-80%) | 0 | 0 | – | – | – | – | – | – | – | – | –
CCn1c(Cn2ccc(C(F)(F)F)n2)c(-c2ccc(Cl)cc2)c(=O)c(C(=O)O)c1-c1ccc(Cl)c(Cl)c1 [Compound 21, 5-(4-chlorophenyl)-2-(3,4-dichlorophenyl)-1-ethyl-4-oxo-6-[[3-(trifluoromethyl)pyrazol-1-yl]methyl]pyridine-3-carboxylic acid] | 0 | 0 | 0 | 1 (1=0-20%) | 0 | 0 | – | – | – | – | – | – | – | – | 0 | 0 | 1 (1=0-20%) | 3 (3=41-60%) | 2 (2=21-40%) | 1 (1=0-20%) | –
CCn1c(Cn2ccc(C(F)(F)F)n2)c(C)c(=O)c(C(=O)O)c1-c1ccc(Cl)c(Cl)c1 [Compound 20, 2-(3,4-dichlorophenyl)-1-ethyl-5-methyl-4-oxo-6-[[3-(trifluoromethyl)pyrazol-1-yl]methyl]pyridine-3-carboxylic acid] | – | – | – | – | – | – | – | – | – | – | – | – | 2 (2=21-40%) | 4 (4=61-80%) | 4 (4=61-80%) | 3 (3=41-60%) | 1 (1=0-20%) | 0 | 0 | 1 (1=0-20%) | Pre-emergence Test ZEAMX, percentage damage caused to the plant (five-point scale) (Zea mays (ZEAMX) [3]; 1000 g/ha): 1 (1=0-20%); Pre-emergence Test IPOHE, percentage damage caused to the plant (five-point scale) ([4]; 1000 g/ha): 0; Pre-emergence Test AMAPA, percentage damage caused to the plant (five-point scale) ([5]; 1000 g/ha): 0; Pre-emergence Test AMARE, percentage damage caused to the plant (five-point scale) ([6]; 1000 g/ha): 0
CCn1c(Cn2ncc3cc(Cl)ccc32)cc(=O)c(C(=O)O)c1-c1ccc(Cl)c(Cl)c1 [Compound 98, 6-[(5-chloroindazol-1-yl)methyl]-2-(3,4-dichlorophenyl)-1-ethyl-4-oxo-pyridine-3-carboxylic acid] | 0 | 0 | 0 | 0 | 1 (1=0-20%) | 0 | 1 (1=0-20%) | 2 (2=21-40%) | 1 (1=0-20%) | 1 (1=0-20%) | 0 | 1 (1=0-20%) | – | – | – | – | – | – | – | – | –
